System: clinical MDR isolate (TB4001)
Format: cell-based, Mycobacterium tuberculosis

## NNC(=O)c1ccncc1 [Isoniazid]
  resistance of TB4001: resistant

## CO[C@H]1/C=C/O[C@@]2(C)Oc3c(C)c(O)c4c(O)c(c(/C=N/N5CCN(C)CC5)c(O)c4c3C2=O)NC(=O)/C(C)=C\C=C\[C@H](C)[C@H](O)[C@@H](C)[C@@H](O)[C@@H](C)[C@H](OC(C)=O)[C@@H]1C [Rifampicin]
  resistance of TB4001: resistant

From PMC6289163 (Tuberculosis (Edinburgh, Scotland), 2018)
